Structure (SMILES)	melting point [°C]
Cc1c(-c2ccccc2)n(C(=O)OC(C)(C)C)c2ccccc12 [4aa, tert-butyl 3-methyl-2-phenyl-1H-indole-1-carboxylate]	110 to 112
CC(C)(C)OC(=O)n1c(-c2ccc(Cl)cc2)cc2ccccc21 [4b, tert-butyl 2-(4-chlorophenyl)-1H-indole-1-carboxylate]	86 to 87
CC(C)(C)OC(=O)n1c(-c2ccc(Br)cc2)cc2ccccc21 [4c, tert-butyl 2-(4-bromophenyl)-1H-indole-1-carboxylate]	88 to 89
CC(C)(C)OC(=O)n1c(-c2ccc(C(F)(F)F)cc2)cc2ccccc21 [4e, tert-butyl 2-(4-(trifluoromethyl)phenyl)-1H-indole-1-carboxylate]	108 to 109
COc1ccc(-c2cc3ccccc3n2C(=O)OC(C)(C)C)cc1 [4g, tert-butyl 2-(4-methoxyphenyl)-1H-indole-1-carboxylate]	89 to 90
CC(C)(C)OC(=O)n1c(-c2ccc3ccccc3c2)cc2ccccc21 [4l, tert-butyl 2-(naphthalen-2-yl)-1H-indole-1-carboxylate]	134 to 135
COc1cccc2c1cc(-c1ccccc1)n2C(=O)OC(C)(C)C [4r, tert-butyl 4-methoxy-2-phenyl-1H-indole-1-carboxylate]	81 to 82

Next, values leading:

melting point [°C]	Structure (SMILES)
121 to 122	CC(C)(C)OC(=O)n1c(-c2ccccc2)cc2c(F)cccc21 [4p, tert-butyl 4-fluoro-2-phenyl-1H-indole-1-carboxylate]
111 to 112	CC(C)(C)OC(=O)n1c(-c2ccccc2)cc2c(Cl)cccc21 [4q, tert-butyl 4-chloro-2-phenyl-1H-indole-1-carboxylate]
61 to 62	CC(C)(C)OC(=O)n1c(-c2ccccc2)cc2ccc(Cl)cc21 [4v, tert-butyl 6-chloro-2-phenyl-1H-indole-1-carboxylate]
54 to 55	CC(C)(C)OC(=O)n1c(-c2ccccc2)cc2ccc(Br)cc21 [4w, tert-butyl 6-bromo-2-phenyl-1H-indole-1-carboxylate]
104	CC(C)(C)OC(=O)n1c(-c2ccccc2)cc2ccc(C(F)(F)F)cc21 [4x, tert-butyl 2-phenyl-6-(trifluoromethyl)-1H-indole-1-carboxylate]
62 to 64	Cc1ccc2cc(-c3ccccc3)n(C(=O)OC(C)(C)C)c2c1 [4y, tert-butyl 6-methyl-2-phenyl-1H-indole-1-carboxylate]
70 to 72	CC(C)(C)OC(=O)n1c(-c2ccccc2)cc2ccccc21 [compound 4, tert-butyl 2-phenyl-1H-indole-1-carboxylate]
